Results from ChEMBL document CHEMBL1201862, “PubChem BioAssay data set” (2004).
Calls of active or inactive are those of the source.

How the values were obtained:
[1] = molecular target: T1, Mannose-6-phosphate isomerase (Homo sapiens, UniProt P34949); test: PMI enzyme inhibitors, confirmation, biochemical, fluorescence intensity (AID 1535)
T1 sequence (P34949 whole entry): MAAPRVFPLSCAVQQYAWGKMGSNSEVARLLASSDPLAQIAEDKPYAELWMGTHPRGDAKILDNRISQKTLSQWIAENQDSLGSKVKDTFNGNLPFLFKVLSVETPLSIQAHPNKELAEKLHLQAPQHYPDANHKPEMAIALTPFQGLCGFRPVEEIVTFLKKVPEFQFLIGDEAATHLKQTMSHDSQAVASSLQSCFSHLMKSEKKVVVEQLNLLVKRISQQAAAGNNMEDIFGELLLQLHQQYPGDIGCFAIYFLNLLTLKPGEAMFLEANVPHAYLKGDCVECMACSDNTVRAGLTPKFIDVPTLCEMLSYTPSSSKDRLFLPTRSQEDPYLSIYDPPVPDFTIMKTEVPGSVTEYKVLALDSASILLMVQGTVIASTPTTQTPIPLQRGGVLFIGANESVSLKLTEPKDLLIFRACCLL

Phosphomannomutase 2 = Phosphomannomutase 2 (Homo sapiens, UniProt O15305); test: Counter screen SAR assay for PMM2 inhibitors via a fluorescence intensity assay. [Related pubchem assays (depositor defined):AID1545, AID1574]
[2] = molecular target: T2, Kappa-type opioid receptor (Homo sapiens, UniProt P41145); test: KOR antagonists by imaging, SAR follow-up, image-based (AID 2348); type: functional
[3] = molecular target: T3, Delta-type opioid receptor (Homo sapiens, UniProt P41143); test: DOR agonists, SAR follow-up, image-based (AID 2370); type: functional
[4] = molecular target: T2, Kappa-type opioid receptor; test: KOR agonist analogs, imaging readout, SAR follow-up, image-based (AID 2359); type: functional
[5] = molecular target: T3, Delta-type opioid receptor; test: DOR antagonists, SAR follow-up, image-based (AID 2357); type: functional
[6] = molecular target: T2, Kappa-type opioid receptor; test: SAR analysis of small molecule agonists of the kappa opioid receptor via a luminescent beta-arrestin assay. [Related pubchem assays (depositor defined):AID1777, AID1786, AID1966, AID2133, AID2136, AID2348, AID2352, AID2357, AID2359, AID2370, AID2420, AID2478, AID2491, AID2492, AID2493, AID2497, AID2498, AID2500, AID449737, AID488822, AID488842]; type: functional
Mu-type opioid receptor [7] = molecular target: T4, Mu-type opioid receptor (Homo sapiens, UniProt P35372); test: MOR agonists by imaging, SAR follow-up, image-based (AID 2352); type: functional
Mu-type opioid receptor [8] = molecular target: T4, Mu-type opioid receptor; test: MOR antagonists, SAR follow-up, image-based (AID 2420); type: functional;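 further: compounds added before stimulation of receptor with agonist DAMGO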
Prothrombin = Prothrombin (Bos taurus, UniProt P00735); test: thrombin inhibition, dose response, biochemical, fluorescence polarization, uHTS hits (AID 602369); type: functional
[9] = molecular target: T5, Tyrosine-protein phosphatase non-receptor type 22 (Homo sapiens, UniProt Q9Y2R2); test: inhibitors of LYP phosphatase, biochemical, fluorescence intensity, uHTS (AID 1779)
T5 sequence (Q9Y2R2 whole entry): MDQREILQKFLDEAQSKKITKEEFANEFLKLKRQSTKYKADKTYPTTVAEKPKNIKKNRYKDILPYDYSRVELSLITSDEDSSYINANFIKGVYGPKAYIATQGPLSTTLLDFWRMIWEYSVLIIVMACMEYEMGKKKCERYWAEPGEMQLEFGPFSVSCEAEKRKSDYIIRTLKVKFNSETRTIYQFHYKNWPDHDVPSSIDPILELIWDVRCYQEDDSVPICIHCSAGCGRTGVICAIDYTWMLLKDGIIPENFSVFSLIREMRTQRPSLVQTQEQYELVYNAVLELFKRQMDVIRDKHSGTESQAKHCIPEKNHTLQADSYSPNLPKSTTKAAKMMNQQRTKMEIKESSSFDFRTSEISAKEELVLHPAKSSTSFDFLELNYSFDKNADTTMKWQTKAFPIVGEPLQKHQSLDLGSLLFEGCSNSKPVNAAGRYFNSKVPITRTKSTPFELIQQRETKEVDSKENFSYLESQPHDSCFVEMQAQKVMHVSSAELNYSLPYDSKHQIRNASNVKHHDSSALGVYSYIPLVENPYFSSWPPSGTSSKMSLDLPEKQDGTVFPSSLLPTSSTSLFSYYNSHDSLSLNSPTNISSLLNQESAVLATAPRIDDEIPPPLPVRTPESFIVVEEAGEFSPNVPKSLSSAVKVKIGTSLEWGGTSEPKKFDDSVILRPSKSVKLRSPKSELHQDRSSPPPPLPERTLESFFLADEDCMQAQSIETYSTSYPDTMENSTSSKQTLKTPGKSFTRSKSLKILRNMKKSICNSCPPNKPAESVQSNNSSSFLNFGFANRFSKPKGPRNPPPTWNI

[10] = molecular target: T5, Tyrosine-protein phosphatase non-receptor type 22; test: SAR LYP1 Fluorescent Assay using pCAP substrate for In Vitro dose response studies - Set 2. [Related pubchem assays (depositor defined):AID1779, AID1784, AID2135, AID449727]; type: functional
[11] = molecular target: T5, Tyrosine-protein phosphatase non-receptor type 22; test: SAR LYP1 Fluorescent Assay using OMFP substrate for In Vitro dose response studies - Set 2. [Related pubchem assays (depositor defined):AID1779, AID1784, AID2140, AID449726, AID488869]; type: functional
[12] = molecular target: 26S proteasome non-ATPase regulatory subunit 14 (Homo sapiens, UniProt O00487); test: inhibition of proteasome subunit RPN11 – biochemical, fluorescence polarization, uHTS hits, confirmation (AID 602368); type: functional
[13] = molecular target: T5, Tyrosine-protein phosphatase non-receptor type 22; test: LYP1 Fluorescent Assay using OMFP substrate for In Vitro dose response studies. [Related pubchem assays (depositor defined):AID1779, AID1784, AID435024]
[14] = molecular target: 72 kDa type IV collagenase (Homo sapiens, UniProt P08253); test: Dose Response validation of uHTS RPN11 inhibitor hits using a MMP-2 Fluorescence assay.; type: functional
[15] = molecular target: T6, Tyrosine-protein phosphatase non-receptor type 7 (Homo sapiens, UniProt P35236); type: functional
T6 sequence (P35236 whole entry): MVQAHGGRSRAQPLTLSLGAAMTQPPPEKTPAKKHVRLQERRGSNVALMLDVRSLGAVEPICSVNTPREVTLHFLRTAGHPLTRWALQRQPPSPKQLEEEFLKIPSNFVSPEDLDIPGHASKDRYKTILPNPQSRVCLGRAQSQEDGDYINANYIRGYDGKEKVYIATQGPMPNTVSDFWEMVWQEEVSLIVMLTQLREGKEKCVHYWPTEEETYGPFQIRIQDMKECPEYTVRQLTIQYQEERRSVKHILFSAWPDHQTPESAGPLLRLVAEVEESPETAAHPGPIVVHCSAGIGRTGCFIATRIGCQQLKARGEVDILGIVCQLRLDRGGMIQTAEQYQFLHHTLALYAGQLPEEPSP

[16] = molecular target: T7, Zinc finger protein mex-5 (Caenorhabditis elegans, UniProt Q9XUB2); test: MEX-5/TCR-2 RNA interaction inhibitors, dose response, biochemical, C. elegans, fluorescence polarization (AID 1960)
T7 sequence (Q9XUB2 whole entry): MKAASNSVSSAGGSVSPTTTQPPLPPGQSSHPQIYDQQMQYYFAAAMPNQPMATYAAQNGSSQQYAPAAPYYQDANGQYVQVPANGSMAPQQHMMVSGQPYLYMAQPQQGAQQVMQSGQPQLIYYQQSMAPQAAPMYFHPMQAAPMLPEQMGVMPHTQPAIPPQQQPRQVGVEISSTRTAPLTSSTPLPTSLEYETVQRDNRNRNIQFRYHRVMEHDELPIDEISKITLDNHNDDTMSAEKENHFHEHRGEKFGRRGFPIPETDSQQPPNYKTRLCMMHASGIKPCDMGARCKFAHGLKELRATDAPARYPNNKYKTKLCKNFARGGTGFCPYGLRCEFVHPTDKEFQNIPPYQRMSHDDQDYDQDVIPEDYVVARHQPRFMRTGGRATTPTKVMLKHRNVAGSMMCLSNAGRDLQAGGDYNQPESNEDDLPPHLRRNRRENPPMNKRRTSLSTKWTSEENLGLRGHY

[17] = molecular target: T5, Tyrosine-protein phosphatase non-receptor type 22; test: PubChem AID 2135
[18] = molecular target: T8, RNA-binding protein pos-1 (Caenorhabditis elegans, UniProt G5EF15); test: inhibitors of POS-1/mex-3 RNA binding, dose response, biochemical, fluorescence polarization (AID 1964);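 further: purified POS-1 fused to maltose binding protein made in E. coli; potency of compounds blocking POS-1 binding to fluorescent RNA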
T8 sequence (G5EF15 whole entry): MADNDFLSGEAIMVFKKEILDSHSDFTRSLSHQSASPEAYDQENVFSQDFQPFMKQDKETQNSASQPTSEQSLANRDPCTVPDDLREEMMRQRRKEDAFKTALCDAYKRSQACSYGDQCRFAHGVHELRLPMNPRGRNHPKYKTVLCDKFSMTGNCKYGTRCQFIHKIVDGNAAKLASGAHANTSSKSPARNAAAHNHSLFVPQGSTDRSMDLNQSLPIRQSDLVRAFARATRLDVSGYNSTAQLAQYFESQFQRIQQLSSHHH

[19] = molecular target: T6, Tyrosine-protein phosphatase non-receptor type 7; test: HePTP (PTPN7) phosphatase inhibitor potency, SAR follow-up, biochemical, set 2 (AID 449736); type: functional
[20] = HIV-1 Env-mediated cell fusion inhibitors, dose response, CCR5-tropic Env (AID 2279); type: functional
[21] = molecular target: T5, Tyrosine-protein phosphatase non-receptor type 22; test: SAR LYP1 Fluorescent Assay using OMFP substrate for In Vitro dose response studies - Set 3. [Related pubchem assays (depositor defined):AID1779, AID1784, AID2140, AID2686]; type: functional
[22] = molecular target: T6, Tyrosine-protein phosphatase non-receptor type 7; test: HTS HePTP Fluorescent Assay using OMFP substrate for In Vitro dose response studies. [Related pubchem assays (depositor defined):AID1059, AID1077, AID1784, AID2068, AID2085, AID435032, AID521]; type: functional
[23] = molecular target: Tyrosine-protein phosphatase non-receptor type 12 (Homo sapiens, UniProt Q05209); test: SAR Selectivity Analysis of small molecule inhibitors of PEST using pCAP in a fluorescence assay. [Related pubchem assays (depositor defined):AID1779, AID1784, AID2135]; type: functional
[24] = molecular target: T5, Tyrosine-protein phosphatase non-receptor type 22; type: functional
[25] = molecular target: T5, Tyrosine-protein phosphatase non-receptor type 22; test: PubChem AID 2140
[26] = molecular target: Envelope glycoprotein gp160 (Human immunodeficiency virus 1, UniProt Q6QLK5); test: inhibitors of HIV fusion peptide binding, primary screen, biochemical, uHTS, fluorescence dequenching (AID 1986)
Exodeoxyribonuclease V = Exodeoxyribonuclease V (Escherichia coli (strain K12), UniProt P04993+P07648+P08394); test: E. coli RecBCD inhibitors, dose response, counter-screen for AddAB inhibitor project, absorbance, V66 E. coli, mutant T4 phage (AID 492957); type: functional, cell-based, Escherichia coli str. K-12 substr. MG1655
[27] = Counterscreen for AddAB inhibitors: absorbance-based bacterial cell-based high throughput dose response assay for inhibitors of bacterial viability. [Related pubchem assays (depositor defined):AID435030, AID449728, AID449731, AID488942, AID488955, AID488956]; type: functional
[28] = molecular target: Nucleotide-binding oligomerization domain-containing protein 1 (Homo sapiens, UniProt Q9Y239); test: NOD1 signaling inhibitors, SAR follow-up, revised (AID 2333); type: functional
[29] = molecular target: Nucleotide-binding oligomerization domain-containing protein 2 (Homo sapiens, UniProt Q9HC29); test: PubChem AID 2334; type: functional
HEK293 = test: cells; conditions: Homo sapiens
Tumor necrosis factor = Tumor necrosis factor (Homo sapiens, UniProt P01375); test: TNFa-triggered NF-kB activation inhibitors, SAR follow-up, cell-based, revised (AID 2337); type: functional
[30] = molecular target: T2, Kappa-type opioid receptor; test: SAR analysis of small molecule agonists of the kappa opioid receptor via a luminescent beta-arrestin assay - Set 3. [Related pubchem assays (depositor defined):AID1777, AID1785, AID1786, AID1966, AID2133, AID2136, AID2284, AID2500]; type: functional

T2 sequence (P41145 whole entry): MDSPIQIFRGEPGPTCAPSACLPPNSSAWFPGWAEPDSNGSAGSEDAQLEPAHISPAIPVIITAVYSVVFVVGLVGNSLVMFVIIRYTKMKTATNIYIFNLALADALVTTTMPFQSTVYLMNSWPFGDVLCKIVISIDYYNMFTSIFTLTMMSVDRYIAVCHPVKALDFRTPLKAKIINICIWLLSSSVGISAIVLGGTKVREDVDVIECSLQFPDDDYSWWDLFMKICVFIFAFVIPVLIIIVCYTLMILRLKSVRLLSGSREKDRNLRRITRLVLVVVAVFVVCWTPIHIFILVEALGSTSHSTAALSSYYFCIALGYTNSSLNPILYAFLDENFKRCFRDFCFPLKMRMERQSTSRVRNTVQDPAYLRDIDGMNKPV
T4 sequence (P35372 whole entry): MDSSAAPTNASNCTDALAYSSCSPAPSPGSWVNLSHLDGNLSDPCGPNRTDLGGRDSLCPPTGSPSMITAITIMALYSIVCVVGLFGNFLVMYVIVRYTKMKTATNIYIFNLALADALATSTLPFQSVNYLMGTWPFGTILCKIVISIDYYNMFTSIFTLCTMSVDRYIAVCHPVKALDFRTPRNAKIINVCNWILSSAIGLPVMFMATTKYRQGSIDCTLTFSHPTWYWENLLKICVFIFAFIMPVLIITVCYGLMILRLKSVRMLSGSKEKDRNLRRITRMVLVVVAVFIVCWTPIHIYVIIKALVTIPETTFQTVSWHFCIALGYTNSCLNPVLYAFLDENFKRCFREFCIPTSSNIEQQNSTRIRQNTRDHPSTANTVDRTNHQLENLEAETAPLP
T3 sequence (P41143 whole entry): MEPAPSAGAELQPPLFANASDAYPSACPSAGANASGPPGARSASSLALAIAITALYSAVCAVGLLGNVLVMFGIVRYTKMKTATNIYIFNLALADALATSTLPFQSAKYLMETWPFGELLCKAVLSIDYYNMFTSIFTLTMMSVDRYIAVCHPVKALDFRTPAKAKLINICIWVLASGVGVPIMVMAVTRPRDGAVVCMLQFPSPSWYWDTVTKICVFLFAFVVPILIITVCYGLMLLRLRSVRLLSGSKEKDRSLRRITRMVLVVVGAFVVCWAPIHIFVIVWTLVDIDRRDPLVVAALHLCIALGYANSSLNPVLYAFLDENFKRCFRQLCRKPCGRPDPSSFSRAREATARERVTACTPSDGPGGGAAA
Sequence of Tumor necrosis factor (P01375 whole entry): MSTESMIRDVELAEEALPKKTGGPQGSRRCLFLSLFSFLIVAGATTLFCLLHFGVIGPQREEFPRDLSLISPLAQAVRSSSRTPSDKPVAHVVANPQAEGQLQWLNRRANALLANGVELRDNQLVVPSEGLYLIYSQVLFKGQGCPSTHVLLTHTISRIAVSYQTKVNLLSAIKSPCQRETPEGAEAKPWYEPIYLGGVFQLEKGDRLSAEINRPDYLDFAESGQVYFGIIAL
Sequence of 26S proteasome non-ATPase regulatory subunit 14 (O00487 whole entry): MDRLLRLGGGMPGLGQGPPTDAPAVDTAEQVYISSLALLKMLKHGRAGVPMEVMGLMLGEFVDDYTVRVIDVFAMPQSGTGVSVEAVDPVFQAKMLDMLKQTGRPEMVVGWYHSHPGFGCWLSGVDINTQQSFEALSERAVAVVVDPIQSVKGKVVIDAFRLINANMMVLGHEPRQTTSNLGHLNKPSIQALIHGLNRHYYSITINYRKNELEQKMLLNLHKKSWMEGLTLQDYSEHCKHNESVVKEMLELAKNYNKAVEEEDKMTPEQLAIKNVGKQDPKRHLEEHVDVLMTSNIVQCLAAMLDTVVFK
Sequence of 72 kDa type IV collagenase (P08253 whole entry): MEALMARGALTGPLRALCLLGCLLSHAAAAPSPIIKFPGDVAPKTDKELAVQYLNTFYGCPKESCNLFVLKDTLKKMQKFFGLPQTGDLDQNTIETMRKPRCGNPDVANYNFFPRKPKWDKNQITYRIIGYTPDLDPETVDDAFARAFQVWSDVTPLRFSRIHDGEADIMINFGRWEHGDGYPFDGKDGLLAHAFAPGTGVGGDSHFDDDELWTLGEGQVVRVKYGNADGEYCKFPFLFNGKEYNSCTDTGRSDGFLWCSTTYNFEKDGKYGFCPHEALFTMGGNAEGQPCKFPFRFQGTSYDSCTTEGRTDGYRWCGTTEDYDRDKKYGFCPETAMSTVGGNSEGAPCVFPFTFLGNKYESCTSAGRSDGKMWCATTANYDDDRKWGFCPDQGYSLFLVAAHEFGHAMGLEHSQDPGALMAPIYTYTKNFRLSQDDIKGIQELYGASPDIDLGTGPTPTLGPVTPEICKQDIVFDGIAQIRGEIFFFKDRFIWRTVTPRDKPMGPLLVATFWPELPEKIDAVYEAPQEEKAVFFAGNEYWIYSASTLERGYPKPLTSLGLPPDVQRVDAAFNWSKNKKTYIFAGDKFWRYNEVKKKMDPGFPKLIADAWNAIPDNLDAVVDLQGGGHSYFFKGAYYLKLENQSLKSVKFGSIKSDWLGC
Sequence of Envelope glycoprotein gp160 (Q6QLK5 whole entry, the tested form may be a part): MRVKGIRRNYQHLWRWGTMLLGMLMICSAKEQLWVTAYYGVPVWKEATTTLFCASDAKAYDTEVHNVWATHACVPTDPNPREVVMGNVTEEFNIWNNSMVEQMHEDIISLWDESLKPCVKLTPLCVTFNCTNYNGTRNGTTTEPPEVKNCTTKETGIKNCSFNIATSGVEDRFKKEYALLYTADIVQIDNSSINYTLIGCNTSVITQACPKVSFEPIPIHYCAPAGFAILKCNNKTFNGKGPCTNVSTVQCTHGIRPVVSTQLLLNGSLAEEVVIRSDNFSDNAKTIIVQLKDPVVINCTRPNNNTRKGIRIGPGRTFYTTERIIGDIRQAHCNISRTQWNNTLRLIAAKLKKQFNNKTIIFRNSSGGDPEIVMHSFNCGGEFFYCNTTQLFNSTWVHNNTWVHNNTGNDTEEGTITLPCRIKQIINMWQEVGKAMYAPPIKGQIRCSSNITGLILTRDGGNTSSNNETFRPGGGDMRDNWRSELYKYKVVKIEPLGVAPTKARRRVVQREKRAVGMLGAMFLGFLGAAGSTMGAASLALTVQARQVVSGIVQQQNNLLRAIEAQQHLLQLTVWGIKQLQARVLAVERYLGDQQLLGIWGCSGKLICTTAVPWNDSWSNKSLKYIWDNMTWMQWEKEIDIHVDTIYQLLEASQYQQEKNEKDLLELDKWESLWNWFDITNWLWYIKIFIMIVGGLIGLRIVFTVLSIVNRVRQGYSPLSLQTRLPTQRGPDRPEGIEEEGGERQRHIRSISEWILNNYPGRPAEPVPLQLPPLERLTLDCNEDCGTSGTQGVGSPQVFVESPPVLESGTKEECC
Sequence of Nucleotide-binding oligomerization domain-containing protein 1 (Q9Y239 whole entry, the tested form may be a part): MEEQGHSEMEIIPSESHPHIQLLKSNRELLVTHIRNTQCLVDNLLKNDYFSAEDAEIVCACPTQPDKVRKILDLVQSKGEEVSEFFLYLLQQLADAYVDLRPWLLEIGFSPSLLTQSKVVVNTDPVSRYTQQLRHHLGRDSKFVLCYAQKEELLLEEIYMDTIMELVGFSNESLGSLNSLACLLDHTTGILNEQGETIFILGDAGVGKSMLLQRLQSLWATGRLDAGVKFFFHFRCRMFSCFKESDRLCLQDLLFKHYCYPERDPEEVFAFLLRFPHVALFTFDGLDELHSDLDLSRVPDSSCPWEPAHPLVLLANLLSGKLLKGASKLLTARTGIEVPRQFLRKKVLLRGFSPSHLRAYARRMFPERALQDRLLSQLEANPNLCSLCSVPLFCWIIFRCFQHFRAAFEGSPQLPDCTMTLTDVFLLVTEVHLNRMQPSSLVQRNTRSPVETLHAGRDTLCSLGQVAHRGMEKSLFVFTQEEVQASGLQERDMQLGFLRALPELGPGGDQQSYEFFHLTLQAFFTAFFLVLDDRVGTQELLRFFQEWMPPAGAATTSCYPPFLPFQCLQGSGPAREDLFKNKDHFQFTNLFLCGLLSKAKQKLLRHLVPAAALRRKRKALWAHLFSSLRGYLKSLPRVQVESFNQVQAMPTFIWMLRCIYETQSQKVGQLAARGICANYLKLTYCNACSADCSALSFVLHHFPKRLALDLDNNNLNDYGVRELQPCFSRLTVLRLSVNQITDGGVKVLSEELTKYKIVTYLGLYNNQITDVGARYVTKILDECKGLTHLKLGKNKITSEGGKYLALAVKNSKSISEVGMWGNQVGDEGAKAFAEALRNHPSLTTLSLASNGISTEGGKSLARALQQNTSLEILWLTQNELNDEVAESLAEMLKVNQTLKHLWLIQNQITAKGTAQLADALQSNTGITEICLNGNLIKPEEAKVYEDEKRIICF
Sequence of Phosphomannomutase 2 (O15305 whole entry): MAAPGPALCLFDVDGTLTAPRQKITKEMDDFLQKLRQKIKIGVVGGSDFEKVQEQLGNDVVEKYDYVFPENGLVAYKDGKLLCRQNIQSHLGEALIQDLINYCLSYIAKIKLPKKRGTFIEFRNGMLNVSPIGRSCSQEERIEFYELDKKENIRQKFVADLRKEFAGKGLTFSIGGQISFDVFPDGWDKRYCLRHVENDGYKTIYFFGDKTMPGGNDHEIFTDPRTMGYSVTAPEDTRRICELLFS

## CCOc1ccc(-c2nnc(S)o2)cc1
[1]
  IC50: > 50 µM (inactive)
Phosphomannomutase 2
  IC50: > 100 µM (inactive)

## Cc1ccc2[nH]c(=O)c(CN(C)C(=O)c3ccccn3)cc2c1
[2]
  IC50: > 32 µM (inactive)
[3]
  EC50: > 32 µM (inactive)
[4]
  EC50: > 32 µM (inactive)
[5]
  IC50: > 32 µM (inactive)
[6]
  EC50: > 10 µM (inactive)
Mu-type opioid receptor [7]
  EC50: > 32 µM (inactive)
Mu-type opioid receptor [8]
  IC50: > 32 µM (inactive)

## O=C(O)CCCN1C(=O)/C(=C/c2ccc(-c3nc4ccccc4s3)o2)SC1=S
Prothrombin
  IC50: 34.5 µM (active)
[9]
  IC50: 7.71 µM (active)
[10]
  IC50: 3.1 µM (active)
[11]
  IC50: 3.92 µM (active)
[12]
  IC50: 5.26 µM (active)
[13]
  IC50: 6.14 µM (active)
[14]
  IC50: > 100 µM (inactive)
[15]
  IC50: 11.5 µM (active)
[16]
  EC50: 20.4 µM (active)
[17]
  IC50: 3.69 µM (active)
[18]
  EC50: 3.39 µM (active)
[19]
  IC50: 0.608 µM (active)
[20]
  IC50: 4.43 µM (active)
[21]
  IC50: 11.2 µM (active)
[22]
  IC50: 24.6 µM (active)
[23]
  IC50: 1.63 µM (active)
[24]
  IC50: 4.77 µM (active)
[25]
  IC50: 16 µM (active)
[26]
  IC50: 11.7 µM (active)

## Cc1cccnc1NC(=O)c1ccc([N+](=O)[O-])o1
Exodeoxyribonuclease V
  IC50: > 119 µM (inactive)
[27]
  IC50: 29.9 µM (inactive)

## O=C(Nc1nc2ccccc2n1Cc1ccccc1Cl)C1CCCCC1
[28]
  IC50: > 20 µM (inactive)
[29]
  IC50: > 20 µM (inactive)
HEK293
  IC50: > 20 µM (inactive)
Tumor necrosis factor
  IC50: > 20 µM (inactive)

## c1ccc(CSc2nnc(-c3ccccn3)n2Cc2ccccc2)cc1
[30]
  EC50: > 20 µM (inactive)
